Some results are limits rather than exact numbers.

The first assay relates to HCV 1b RLuc cells (dicistronic genotype 1b Con1 replicon). The assay is described as follows: Renilla luciferase (RLuc)-based HCV replicon reporter assay. The class given is cell-based, HCV genotype 1b. The note with it: Hepatitis C virus, 72 h, HCV 1b RLuc replicon, 72 hours; read-out: Activity (antiviral potency [EC50]). An outline of the steps:
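HCV 1b RLuc cells carrying a dicistronic genotype 1b Con1 replicon were treated with serially diluted compounds from 10 mM DMSO stocks. After 72 h, cells were lysed and Renilla luciferase activity measured. EC50 was obtained by non-linear regression.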
A general note: A replicon is a self-replicating genome or part of one, used to study replication in cells.
The term EC50 denotes the concentration that produces a half-maximal response. On to `COC(=O)N[C@H](C(=O)N1[C@@H]2CC[C@@H](C2)[C@H]1c1ncc(-c2ccc(-c3ccc(-c4cnc([C@@H]5[C@H]6CC[C@H](C6)N5C(=O)[C@@H](NC(=O)OC)C(C)C)[nH]4)cc3)cc2)[nH]1)C(C)C`, for which the EC50 came to 0.01 nM. On the same count and under the same terms, the value for `COC(=O)N[C@H](C(=O)N1CCC[C@H]1c1nc(-c2cccc(Oc3ccc(-c4cnc([C@@H]5CCCN5C(=O)[C@@H](NC(=O)OC)C(C)C)[nH]4)cc3)c2)c[nH]1)C(C)C` was 0.0539 nM; that for `COC(=O)N[C@H](C(=O)N1CCC[C@H]1c1ncc(C#Cc2ccc(C#Cc3cnc([C@@H]4CCCN4C(=O)[C@@H](NC(=O)OC)C(C)C)[nH]3)cc2)[nH]1)C(C)C` was 0.0474 nM. In the case of `COC(=O)N[C@@H](CS(C)(=O)=O)C(=O)N1[C@@H]2CC[C@@H](C2)[C@H]1c1nc2ccc(-c3ccc4c(c3)C(F)(F)c3cc(-c5cnc([C@@H]6CC7(CC7)CN6C(=O)[C@@H](NC(=O)OC)C(C)C)[nH]5)ccc3-4)cc2[nH]1`, the EC50 worked out at 0.005 nM. On the same count and under the same terms, next, `COC(=O)N[C@H](C(=O)N1CC2(CC2)C[C@H]1c1ncc(-c2ccc3cc(-c4ccc(-c5cnc([C@@H]6[C@H]7CC[C@H](C7)N6C(=O)[C@H](NC(=O)OC)c6ccccc6)[nH]5)cc4)ccc3c2)[nH]1)C(C)C`: 0.0261 nM; `COC(=O)N[C@H](C(=O)N1CCC[C@H]1c1nc(C(=O)N2CCC3(CC2)CCN(C(=O)c2c[nH]c([C@@H]4CCCN4C(=O)[C@@H](NC(=O)OC)C(C)C)n2)CC3)c[nH]1)C(C)C`: above 44.4 nM; `COC(=O)N[C@H](C(=O)N1CCC[C@H]1c1ncc(-c2ccc3c(c2)sc2cc(-c4cnc([C@@H]5CCCN5C(=O)[C@@H](NC(=O)OC)C(C)C)[nH]4)ccc23)[nH]1)C(C)C`: 0.0074 nM. Consider `COC(=O)N[C@H](C(=O)N1CCC[C@H]1c1ncc(-c2ccc(-c3ccc4cc(-c5ccc6nc([C@@H]7[C@H]8CC[C@H](C8)N7C(=O)[C@@H](NC(=O)OC)C(C)C)[nH]c6c5)ccc4c3)cc2)[nH]1)C(C)C`, for which the EC50 was determined as 0.0898 nM. Consider `COC(=O)N[C@H](C(=O)N1CC2(CC2)C[C@H]1c1ncc(-c2ccc3cc(-c4ccc(-c5cnc([C@@H]6[C@H]7CC[C@H](C7)N6C(=O)[C@@H](NC(=O)OC)C(C)(C)OC)[nH]5)cc4)ccc3c2)[nH]1)C(C)C`, for which the EC50 was 0.0145 nM.

As to `COC(=O)N[C@H](C(=O)N1CCC[C@H]1c1ncc(-c2ccc(-c3ccc(-c4ccc5nc([C@@H]6[C@H]7CC[C@H](C7)N6C(=O)[C@@H](NC(=O)OC)C(C)C)[nH]c5c4)cc3)cc2)[nH]1)C(C)C`, the EC50 turned out to be 0.006 nM. As to `COC(=O)N[C@H](C(=O)N1CCC[C@H]1c1ncc(-c2ccc3c(c2)oc2cc(-c4ccc5nc([C@@H]6CCCN6C(=O)[C@@H](NC(=O)OC)C(C)C)[nH]c5c4)ccc23)[nH]1)C(C)C`, the EC50 amounted to 0.0075 nM. The same measure, in the same setting: the value for `COC(=O)N[C@H](C(=O)N1[C@@H]2CC[C@@H](C2)[C@H]1c1ncc(-c2ccc(-c3ccc4cc(-c5cnc([C@@H]6CC7(CC7)CN6C(=O)[C@@H](NC(=O)OC)C(C)C)[nH]5)ccc4c3)cc2)[nH]1)c1ccccc1` was 0.0071 nM.

Regarding `COC(=O)N[C@H](C(=O)N1Cc2ccccc2C1c1ncc(-c2ccc(-c3ccc(-c4cnc([C@@H]5CCCN5C(=O)[C@@H](NC(=O)OC)C(C)C)[nH]4)cc3)cc2)[nH]1)C(C)C` (some centres unmarked), the EC50 turned out to be 0.0414 nM.

`COC(=O)N[C@H](C(=O)NC1(c2ncc(-c3ccc(-c4ccc(-c5cnc([C@@H]6CCCN6C(=O)[C@@H](NC(=O)OC)C(C)C)[nH]5)cc4)cc3)[nH]2)CC1)C(C)C`: the EC50 is 0.0865 nM. The same measure, in the same setting: next, `COC(=O)N[C@H](C(=O)N1CCC[C@H]1c1ncc(-c2ccc3c(c2)S(=O)(=O)c2ccc(-c4cnc([C@@H]5CCCN5C(=O)[C@@H](NC(=O)OC)C(C)C)[nH]4)cc2S3(=O)=O)[nH]1)C(C)C`: 10.3 nM. On to `COC(=O)N[C@H](C(=O)N1CCC[C@H]1c1ncc(-c2ccc(-c3ccc(-c4cnc([C@H](C)N5CCC[C@@H](NC(=O)OC)C5=O)[nH]4)cc3)cc2)[nH]1)C(C)C`, for which the EC50 is 0.661 nM. On the same count and under the same terms, next, `COC(=O)N[C@H](C(=O)N1CCC[C@H]1c1ncc(-c2ccc3c(c2)oc2cc(-c4cnc([C@@H]5CCCN5C(=O)[C@@H](NC(=O)OC)C(C)C)[nH]4)ccc23)[nH]1)C(C)C`: 0.0052 nM; `COC(=O)N[C@H](C(=O)N1[C@@H]2CC[C@@H](C2)[C@H]1c1ncc(-c2ccc(-c3ccc4cc(-c5cnc([C@@H]6CC7(CC7)CN6C(=O)[C@@H](NC(=O)OC)C(C)OC)[nH]5)ccc4c3)cc2)[nH]1)C(C)C` (some centres unmarked): 0.0077 nM; `COC(=O)NC(C(=O)N1CCC[C@H]1c1ncc(-c2ccc(-c3ccc4cc(-c5cnc([C@@H]6CCCN6C(=O)C(NC(=O)OC)c6ccccc6)[nH]5)ccc4c3)cc2)[nH]1)c1ccccc1` (some centres unmarked): 0.0228 nM. `COC(=O)N[C@H](C(=O)N1CCC[C@H]1c1nc2ccc(-c3ccc(-c4ccc5nc([C@@H]6CCCN6C(=O)[C@@H](NC(=O)OC)C(C)C)[nH]c5c4)s3)cc2[nH]1)C(C)C`: the 50% effective concentration (EC50) was 0.0103 nM. Take `COC[C@@H]1C[C@@H](c2ncc(-c3ccc(-c4ccc5cc(-c6cnc([C@@H]7CC8(CC8)CN7C(=O)[C@@H](NC(=O)OC)C(C)C)[nH]6)ccc5c4)cc3)[nH]2)N(C(=O)[C@@H](NC(=O)OC)C(C)C)C1`: the EC50 is 0.0092 nM. The same measure, in the same setting: next, `COC(=O)NC(C(=O)N1CCC[C@H]1c1ncc(-c2cc3sc(-c4ccc(-c5cnc([C@@H]6CCCN6C(=O)[C@@H](NC(=O)OC)C(C)C)[nH]5)cc4)cc3s2)[nH]1)C(C)C` (some centres unmarked): 0.0129 nM; `COC(=O)N[C@@H](CCOC(F)F)C(=O)N1CCC[C@H]1c1ncc(-c2ccc(-c3ccc(-c4cnc([C@@H]5CC6(CN5C(=O)[C@@H](NC(=O)OC)C(C)C)OCCO6)[nH]4)cc3)cc2)[nH]1`: 0.128 nM. Same read-out and setting: next, `COC(=O)N[C@H](C(=O)N1CCC[C@H]1c1ncc(-c2ccc3c(c2)CCc2cc(-c4cnc([C@@H]5CCCN5C(=O)[C@@H](NC(=O)OC)C(C)C)[nH]4)ccc2-3)[nH]1)C(C)C`: 0.0099 nM. Still for that read-out and setting: next, `COC(=O)N[C@H](C(=O)N1CCC[C@H]1C1=NC(=O)C(C)(c2ccc(-c3ccc(-c4cnc([C@@H]5CCCN5C(=O)[C@@H](NC(=O)OC)C(C)C)[nH]4)cc3)cc2)N1)C(C)C` (some centres unmarked): above 44.4 nM. As for `COC(=O)N[C@H](C(=O)N1CCC[C@H]1c1ncc(-c2ccc3cc(-c4ccc(-c5cnc([C@@H]6C[C@@H](C#N)CN6C(=O)[C@@H](NC(=O)OC)C(C)C)[nH]5)cc4)ccc3c2)[nH]1)C(C)C`, the EC50 turned out to be 0.0048 nM. Still for that read-out and setting: next, `COC(=O)N[C@@H](CCS(C)(=O)=O)C(=O)N1CC2(CC2)C[C@H]1c1ncc(-c2ccc(-c3ccc4cc(-c5cnc([C@@H]6C[C@H](C#N)CN6C(=O)[C@@H](NC(=O)OC)C(C)C)[nH]5)ccc4c3)cc2)[nH]1`: 0.0405 nM. As for `COC(=O)N[C@H](C(=O)N1CCC[C@H]1c1ncc(-c2ccc3cc(-c4ccc(-c5cnc([C@@H]6CCCN6C(=O)[C@@H](Cc6cn(C)c7ccccc67)NC(=O)OC)[nH]5)cc4)ccc3c2)[nH]1)C(C)C`, the EC50 amounted to 6.18 nM. As for `COC(=O)N[C@H](C(=O)N1CCC[C@H]1c1ncc(-c2ccc(-c3ccc4cc(-c5cnc([C@@H]6[C@H]7CC[C@H](C7)N6C(=O)[C@@H](NC(=O)OC)C(C)C)[nH]5)ccc4c3)cc2)[nH]1)C(C)C`, the EC50 was 0.011 nM. For the compound `COC(=O)N[C@H](C(=O)N1CCC[C@H]1c1ncc(-c2ccc3c(c2)C(=O)c2cc(-c4cnc([C@@H]5CCCN5C(=O)[C@@H](NC(=O)OC)C(C)C)[nH]4)ccc2-3)[nH]1)C(C)C`, the EC50 is 0.0184 nM. Still for that read-out and setting: the value for `COC(=O)N[C@H](C(=O)N1CCC[C@H]1c1ncc(-c2ccc(-c3ccc(-c4cnc([C@@H]5CN(c6ccccc6)CN5C(=O)[C@@H](NC(=O)OC)C(C)C)[nH]4)cc3)cc2)[nH]1)C(C)C` was 0.0074 nM.

Regarding `CC[C@H](C)[C@H](NC(=O)OC)C(=O)N1C[C@@H](C#N)C[C@H]1c1ncc(-c2ccc3cc(-c4ccc(-c5cnc([C@@H]6CC7(CC7)CN6C(=O)[C@@H](NC(=O)OC)C(C)C)[nH]5)cc4)ccc3c2)[nH]1`, the EC50 was 0.01 nM. Take `COC(=O)N[C@H](C(=O)N1CCC[C@H]1c1ncc(-c2cc3c(OC)c4sc(-c5cnc([C@@H]6CCCN6C(=O)[C@@H](NC(=O)OC)C6CCOCC6)[nH]5)cc4c(OC)c3s2)[nH]1)C1CCOCC1`: the EC50 is 0.419 nM. Still for that read-out and setting: the value for `COC(=O)N[C@H](C(=O)N1CCC[C@H]1c1ncc(-c2ccc(C#Cc3ccc(-c4cnc([C@@H]5CN(C(=O)OC(C)(C)C)CN5C(=O)[C@@H](NC(=O)OC)C(C)C)[nH]4)cc3)cc2)[nH]1)C(C)C` was 0.318 nM; that for `COC(=O)N[C@H](C(=O)N1CCC[C@H]1c1ncc(-c2ccc(-n3ccc(-c4cnc([C@@H]5CCCN5C(=O)[C@@H](NC(=O)OC)C(C)C)[nH]4)cc3=O)cc2)[nH]1)C(C)C` was 38.1 nM. Same read-out and setting: the value for `COC(=O)N[C@H](C(=O)N1CCC[C@H]1CNC(=O)c1ccc(-c2ccc(-c3cnc([C@@H]4CCCN4C(=O)[C@@H](NC(=O)OC)C(C)C)[nH]3)cc2)cc1)C(C)C` was 0.0915 nM; that for `COC(=O)N[C@H](C(=O)N1CCC[C@H]1C(=O)Nc1nccc2cc(-c3ccc(-c4cnc([C@@H]5CCCN5C(=O)[C@@H](NC(=O)OC)C(C)C)[nH]4)cc3)ccc12)C(C)C` was 0.729 nM. On the same count and under the same terms, the value for `COC(=O)N[C@@H](C)C(=O)N1[C@@H]2CC[C@@H](C2)[C@H]1c1ncc(-c2ccc3cc(-c4ccc(-c5cnc([C@@H]6CCCN6C(=O)[C@@H](NC(=O)OC)C(C)C)[nH]5)cc4)ccc3c2)[nH]1` was 0.016 nM; that for `COC(=O)N[C@H](C(=O)N1CCC[C@H]1c1ncc(-c2ccc(-c3cccc4c(-c5cnc([C@@H]6CCCN6C(=O)[C@@H](NC(=O)OC)C(C)C)[nH]5)cccc34)cc2)[nH]1)C(C)C` was 0.0032 nM. Regarding `COC(=O)N[C@@H](C)C(=O)N1CCN(C(=O)OC)C[C@H]1c1ncc(-c2ccc(-c3ccc(-c4cnc([C@@H]5CCCN5C(=O)[C@@H](NC(=O)OC)C(C)C)[nH]4)cc3)cc2)[nH]1`, the EC50 amounted to 0.224 nM.

Staying with this assay, now noted: Hepatitis C virus, GETYPE1B, 72 h, HCV 1b RLuc replicon, 72 hours; read-out: Activity (antiviral potency [EC50]).
`COC(=O)N[C@H](C(=O)N1CCC[C@H]1c1ncc(-c2ccc3cc(-c4cnc([C@@H]5CCCN5C(=O)[C@@H](NC(=O)OC)C(C)C)[nH]4)ccc3c2)[nH]1)C(C)C`: the EC50 turned out to be 0.0511 nM.
